Test results reported in the kinase profiling compilation of Christmann-Franck et al. (2016).

Legend:
Assay in all cases: radiometric filter-binding kinase assay
AURKB (human) = AURKB (human) (UniProt Q96GD4)
BRSK2 (human) = BRSK2 (human) (UniProt Q8IWQ3)
CAMKK2 (human) = CAMKK2 (human) (UniProt Q96RR4)
CHEK1 (human) = CHEK1 (human) (UniProt O14757)
CLK2 (human) = CLK2 (human) (UniProt P49760)
CSNK2A1 (human) = CSNK2A1 (human) (UniProt P68400)
CaMK1 (human) = CaMK1 (human) (UniProt Q14012)
DAPK1 (human) = DAPK1 (human) (UniProt P53355)
DYRK1A (human) = DYRK1A (human) (UniProt Q13627)
DYRK3 (human) = DYRK3 (human) (UniProt O43781)
EPHB2 (human) = EPHB2 (human) (UniProt P29323)
FGFR1 (human) = FGFR1 (human) (UniProt P11362)
Sequence of FGFR1 (human) (P11362 whole entry, looked up): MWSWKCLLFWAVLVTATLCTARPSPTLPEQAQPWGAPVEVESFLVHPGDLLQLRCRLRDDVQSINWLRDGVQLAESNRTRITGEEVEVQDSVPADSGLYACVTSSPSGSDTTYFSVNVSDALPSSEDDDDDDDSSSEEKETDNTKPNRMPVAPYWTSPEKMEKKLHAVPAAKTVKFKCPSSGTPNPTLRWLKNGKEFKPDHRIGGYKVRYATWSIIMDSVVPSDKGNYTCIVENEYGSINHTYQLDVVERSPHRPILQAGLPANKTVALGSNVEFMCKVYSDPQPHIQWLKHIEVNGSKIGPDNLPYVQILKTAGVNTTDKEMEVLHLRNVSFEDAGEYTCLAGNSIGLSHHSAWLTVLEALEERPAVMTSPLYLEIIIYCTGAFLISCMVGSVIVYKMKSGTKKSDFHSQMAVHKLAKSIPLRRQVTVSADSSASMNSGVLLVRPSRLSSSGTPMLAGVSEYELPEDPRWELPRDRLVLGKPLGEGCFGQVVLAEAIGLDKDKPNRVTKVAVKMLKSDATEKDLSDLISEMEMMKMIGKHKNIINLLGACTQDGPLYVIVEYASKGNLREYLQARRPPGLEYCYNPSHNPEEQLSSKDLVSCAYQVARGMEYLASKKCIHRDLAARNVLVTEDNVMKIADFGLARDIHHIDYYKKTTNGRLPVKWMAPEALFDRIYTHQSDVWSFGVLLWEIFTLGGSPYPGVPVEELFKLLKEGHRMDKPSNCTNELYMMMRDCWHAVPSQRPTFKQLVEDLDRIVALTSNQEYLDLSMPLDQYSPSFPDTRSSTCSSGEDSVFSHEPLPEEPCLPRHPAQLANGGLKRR

GCK (human) = GCK (human) (UniProt Q12851)
HIPK1 (human) = HIPK1 (human) (UniProt Q86Z02)
HIPK2 (human) = HIPK2 (human) (UniProt Q9H2X6)
IGF1R (human) = IGF1R (human) (UniProt P08069)
Sequence of IGF1R (human) (P08069 whole entry, looked up): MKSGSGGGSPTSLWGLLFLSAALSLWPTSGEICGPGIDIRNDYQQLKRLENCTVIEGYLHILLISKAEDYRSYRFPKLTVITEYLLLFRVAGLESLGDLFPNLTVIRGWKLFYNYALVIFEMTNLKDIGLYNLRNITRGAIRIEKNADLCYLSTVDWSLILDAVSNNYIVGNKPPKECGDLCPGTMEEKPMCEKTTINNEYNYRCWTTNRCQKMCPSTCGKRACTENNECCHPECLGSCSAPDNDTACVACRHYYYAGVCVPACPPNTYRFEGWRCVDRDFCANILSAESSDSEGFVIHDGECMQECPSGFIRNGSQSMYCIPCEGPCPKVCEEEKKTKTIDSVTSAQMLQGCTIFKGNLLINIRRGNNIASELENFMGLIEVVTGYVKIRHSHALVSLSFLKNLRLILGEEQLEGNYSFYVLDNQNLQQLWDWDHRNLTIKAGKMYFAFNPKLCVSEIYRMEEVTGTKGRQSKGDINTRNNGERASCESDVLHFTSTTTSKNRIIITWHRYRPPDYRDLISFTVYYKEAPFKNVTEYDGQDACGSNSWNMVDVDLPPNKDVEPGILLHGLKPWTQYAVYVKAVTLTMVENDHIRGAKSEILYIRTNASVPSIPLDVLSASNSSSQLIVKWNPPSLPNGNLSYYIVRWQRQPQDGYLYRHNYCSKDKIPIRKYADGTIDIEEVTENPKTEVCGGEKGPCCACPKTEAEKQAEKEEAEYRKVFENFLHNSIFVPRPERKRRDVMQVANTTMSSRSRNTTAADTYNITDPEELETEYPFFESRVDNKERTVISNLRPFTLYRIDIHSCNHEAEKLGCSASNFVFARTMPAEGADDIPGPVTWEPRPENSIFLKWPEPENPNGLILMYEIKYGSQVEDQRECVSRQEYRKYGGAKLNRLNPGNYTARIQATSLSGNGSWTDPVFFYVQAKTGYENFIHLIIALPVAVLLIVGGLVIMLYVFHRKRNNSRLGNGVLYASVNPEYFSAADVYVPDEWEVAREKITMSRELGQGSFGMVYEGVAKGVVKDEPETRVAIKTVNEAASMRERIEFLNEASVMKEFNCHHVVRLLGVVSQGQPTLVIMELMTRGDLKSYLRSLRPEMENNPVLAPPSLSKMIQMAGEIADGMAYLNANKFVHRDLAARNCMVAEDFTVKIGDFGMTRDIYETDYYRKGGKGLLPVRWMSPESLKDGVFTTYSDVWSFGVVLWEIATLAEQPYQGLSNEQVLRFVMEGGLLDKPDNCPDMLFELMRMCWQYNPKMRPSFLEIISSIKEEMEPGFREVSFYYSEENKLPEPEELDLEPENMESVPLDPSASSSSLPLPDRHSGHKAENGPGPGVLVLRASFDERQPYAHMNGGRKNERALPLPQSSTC

JAK2 JH1 JH2 (human) = JAK2 JH1 JH2 (human) (UniProt O60674)
LCK (mouse) = conditions: accession and sequence are those of the human protein
MAPK10 (human) = MAPK10 (human) (UniProt P53779)
MAPK11 (human) = MAPK11 (human) (UniProt Q15759)
Sequence of MAPK11 (human) (Q15759 whole entry, looked up): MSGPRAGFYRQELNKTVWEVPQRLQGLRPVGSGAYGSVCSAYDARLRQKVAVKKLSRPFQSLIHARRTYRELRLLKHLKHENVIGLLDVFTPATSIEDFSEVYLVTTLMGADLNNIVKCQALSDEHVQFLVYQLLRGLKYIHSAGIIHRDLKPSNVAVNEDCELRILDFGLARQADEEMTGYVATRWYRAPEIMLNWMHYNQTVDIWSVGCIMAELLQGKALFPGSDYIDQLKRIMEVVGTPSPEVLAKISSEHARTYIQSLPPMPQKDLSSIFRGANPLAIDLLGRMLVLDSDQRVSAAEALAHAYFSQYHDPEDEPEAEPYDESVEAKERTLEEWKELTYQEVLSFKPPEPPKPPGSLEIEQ

MAPK13 (human) = MAPK13 (human) (UniProt O15264)
Sequence of MAPK13 (human) (O15264 whole entry, looked up): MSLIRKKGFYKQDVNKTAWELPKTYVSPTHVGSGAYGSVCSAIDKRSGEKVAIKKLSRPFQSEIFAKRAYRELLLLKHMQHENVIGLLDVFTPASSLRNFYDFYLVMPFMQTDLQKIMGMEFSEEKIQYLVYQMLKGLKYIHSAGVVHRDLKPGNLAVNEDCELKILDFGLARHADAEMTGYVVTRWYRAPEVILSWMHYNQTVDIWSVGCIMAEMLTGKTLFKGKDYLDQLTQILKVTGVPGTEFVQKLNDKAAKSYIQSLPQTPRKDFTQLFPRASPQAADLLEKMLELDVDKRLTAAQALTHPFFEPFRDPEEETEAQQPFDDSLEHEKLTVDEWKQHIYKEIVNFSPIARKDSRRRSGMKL

MAPK8 (human) = MAPK8 (human) (UniProt P45983)
MAPKAPK5 (human) = MAPKAPK5 (human) (UniProt Q8IW41)
MARK3 (human) = MARK3 (human) (UniProt P27448)
MINK1 (human) = MINK1 (human) (UniProt Q8N4C8)
MKNK1 (human) = MKNK1 (human) (UniProt Q9BUB5)
[1] = system: PAK2 (human), Q13177 [T402E]
PHKG1 (human) = PHKG1 (human) (UniProt Q16816)
Sequence of PHKG1 (human) (Q16816 whole entry, looked up): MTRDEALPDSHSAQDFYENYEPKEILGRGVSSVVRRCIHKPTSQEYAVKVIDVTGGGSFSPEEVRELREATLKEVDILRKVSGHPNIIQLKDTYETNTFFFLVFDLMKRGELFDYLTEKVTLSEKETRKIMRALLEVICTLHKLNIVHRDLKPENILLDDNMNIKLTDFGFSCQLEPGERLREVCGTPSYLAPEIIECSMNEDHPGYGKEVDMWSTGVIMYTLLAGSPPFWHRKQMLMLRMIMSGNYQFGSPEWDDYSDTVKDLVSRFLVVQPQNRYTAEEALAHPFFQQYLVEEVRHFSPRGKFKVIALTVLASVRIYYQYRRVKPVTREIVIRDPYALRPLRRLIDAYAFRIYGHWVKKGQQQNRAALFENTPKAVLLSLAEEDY

PIM3 (human) = PIM3 (human) (UniProt Q86V86)
ROCK2 (rat) = conditions: accession and sequence are those of the human protein
[2] = system: SGK1 (human), O00141 [S422D]
SRPK1 (human) = SRPK1 (human) (UniProt Q96SB4)
STK3 (human) = STK3 (human) (UniProt Q13188)
Sequence of STK3 (human) (Q13188 whole entry, looked up): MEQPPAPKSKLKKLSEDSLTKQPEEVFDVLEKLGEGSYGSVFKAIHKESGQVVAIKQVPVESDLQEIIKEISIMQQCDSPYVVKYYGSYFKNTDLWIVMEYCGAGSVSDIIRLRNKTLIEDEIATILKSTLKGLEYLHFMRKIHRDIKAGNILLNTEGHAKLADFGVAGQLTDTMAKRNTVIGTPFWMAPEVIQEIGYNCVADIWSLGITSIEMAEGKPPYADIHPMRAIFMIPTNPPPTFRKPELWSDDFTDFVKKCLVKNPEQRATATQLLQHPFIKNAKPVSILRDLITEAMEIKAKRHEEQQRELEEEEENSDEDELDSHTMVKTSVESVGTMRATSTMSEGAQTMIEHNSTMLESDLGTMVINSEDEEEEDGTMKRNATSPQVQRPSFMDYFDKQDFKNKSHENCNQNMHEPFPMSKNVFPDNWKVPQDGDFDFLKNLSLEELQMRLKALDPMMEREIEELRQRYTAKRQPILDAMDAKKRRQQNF

TAOK1 (human) = TAOK1 (human) (UniProt Q7L7X3)
TBK1 (human) = TBK1 (human) (UniProt Q9UHD2)
YES1 (human) = YES1 (human) (UniProt P07947)

Sequence of CHEK1 (human) (O14757 whole entry, looked up): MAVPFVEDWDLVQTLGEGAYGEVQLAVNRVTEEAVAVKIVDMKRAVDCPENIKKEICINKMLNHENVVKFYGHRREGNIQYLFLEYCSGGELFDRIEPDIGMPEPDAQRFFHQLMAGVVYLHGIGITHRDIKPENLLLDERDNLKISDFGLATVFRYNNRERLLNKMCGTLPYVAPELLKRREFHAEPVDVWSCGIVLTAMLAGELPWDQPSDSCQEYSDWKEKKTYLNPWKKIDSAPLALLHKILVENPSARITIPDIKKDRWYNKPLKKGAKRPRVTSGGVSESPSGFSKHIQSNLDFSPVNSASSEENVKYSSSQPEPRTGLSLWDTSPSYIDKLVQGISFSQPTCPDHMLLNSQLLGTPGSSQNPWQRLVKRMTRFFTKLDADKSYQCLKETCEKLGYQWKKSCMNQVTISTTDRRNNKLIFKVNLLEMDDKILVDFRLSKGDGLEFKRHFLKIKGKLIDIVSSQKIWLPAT
Sequence of CaMK1 (human) (Q14012 whole entry, looked up): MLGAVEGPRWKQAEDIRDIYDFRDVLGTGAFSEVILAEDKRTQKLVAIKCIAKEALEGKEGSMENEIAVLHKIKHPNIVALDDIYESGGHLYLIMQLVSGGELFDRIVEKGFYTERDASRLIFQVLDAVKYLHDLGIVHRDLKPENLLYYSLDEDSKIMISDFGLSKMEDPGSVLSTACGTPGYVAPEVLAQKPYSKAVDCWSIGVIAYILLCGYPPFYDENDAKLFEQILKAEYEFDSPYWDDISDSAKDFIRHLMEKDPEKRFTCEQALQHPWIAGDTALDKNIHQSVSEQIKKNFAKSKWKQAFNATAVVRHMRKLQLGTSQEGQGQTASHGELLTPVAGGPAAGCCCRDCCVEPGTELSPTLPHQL

## O=C(Nc1ccccc1-c1cn2c(CN3CCNCC3)csc2n1)c1cnc2ccccc2n1
AURKB (human); compound 1.0 µM
  residual activity: 93%
AURKB (human); compound 10.0 µM
  residual activity: 90%
BRSK2 (human); compound 0.1 µM
  residual activity: 86%
BRSK2 (human); compound 1.0 µM
  residual activity: 97%
BRSK2 (human); compound 10.0 µM
  residual activity: 90%
CAMKK2 (human); compound 0.1 µM
  residual activity: 92%
CAMKK2 (human); compound 1.0 µM
  residual activity: 83%
CAMKK2 (human); compound 10.0 µM
  residual activity: 44%
CHEK1 (human); compound 0.1 µM
  residual activity: 86%
CHEK1 (human); compound 1.0 µM
  residual activity: 98%
CHEK1 (human); compound 10.0 µM
  residual activity: 96%
CLK2 (human); compound 1.0 µM
  residual activity: 60%
CLK2 (human); compound 10.0 µM
  residual activity: 18%
CSNK2A1 (human); compound 0.1 µM
  residual activity: 90%
CSNK2A1 (human); compound 1.0 µM
  residual activity: 102%
CSNK2A1 (human); compound 10.0 µM
  residual activity: 77%
CaMK1 (human); compound 0.1 µM
  residual activity: 109%
CaMK1 (human); compound 1.0 µM
  residual activity: 83%
CaMK1 (human); compound 10.0 µM
  residual activity: 22%
DAPK1 (human); compound 1.0 µM
  residual activity: 68%
DAPK1 (human); compound 10.0 µM
  residual activity: 25%
DYRK1A (human); compound 0.1 µM
  residual activity: 101%
DYRK1A (human); compound 1.0 µM
  residual activity: 94%
DYRK1A (human); compound 10.0 µM
  residual activity: 58%
DYRK3 (human); compound 0.1 µM
  residual activity: 82%
DYRK3 (human); compound 1.0 µM
  residual activity: 91%
DYRK3 (human); compound 10.0 µM
  residual activity: 64%
EPHB2 (human); compound 1.0 µM
  residual activity: 82%
EPHB2 (human); compound 10.0 µM
  residual activity: 84%
FGFR1 (human); compound 0.1 µM
  residual activity: 103%
FGFR1 (human); compound 1.0 µM
  residual activity: 91%
FGFR1 (human); compound 10.0 µM
  residual activity: 68%
GCK (human); compound 1.0 µM
  residual activity: 102%
GCK (human); compound 10.0 µM
  residual activity: 99%
HIPK1 (human); compound 1.0 µM
  residual activity: 104%
HIPK1 (human); compound 10.0 µM
  residual activity: 91%
HIPK2 (human); compound 1.0 µM
  residual activity: 86%
HIPK2 (human); compound 10.0 µM
  residual activity: 38%
IGF1R (human); compound 0.1 µM
  residual activity: 92%
IGF1R (human); compound 1.0 µM
  residual activity: 96%
IGF1R (human); compound 10.0 µM
  residual activity: 25%
JAK2 JH1 JH2 (human); compound 1.0 µM
  residual activity: 90%
JAK2 JH1 JH2 (human); compound 10.0 µM
  residual activity: 86%
LCK (mouse); compound 0.1 µM
  residual activity: 88%
LCK (mouse); compound 1.0 µM
  residual activity: 106%
LCK (mouse); compound 10.0 µM
  residual activity: 58%
MAPK10 (human); compound 1.0 µM
  residual activity: 105%
MAPK10 (human); compound 10.0 µM
  residual activity: 89%
MAPK11 (human); compound 0.1 µM
  residual activity: 102%
MAPK11 (human); compound 1.0 µM
  residual activity: 89%
MAPK11 (human); compound 10.0 µM
  residual activity: 90%
MAPK13 (human); compound 0.1 µM
  residual activity: 91%
MAPK13 (human); compound 1.0 µM
  residual activity: 78%
MAPK13 (human); compound 10.0 µM
  residual activity: 85%
MAPK8 (human); compound 0.1 µM
  residual activity: 116%
MAPK8 (human); compound 1.0 µM
  residual activity: 103%
MAPK8 (human); compound 10.0 µM
  residual activity: 86%
MAPKAPK5 (human); compound 0.1 µM
  residual activity: 101%
MAPKAPK5 (human); compound 1.0 µM
  residual activity: 91%
MAPKAPK5 (human); compound 10.0 µM
  residual activity: 105%
MARK3 (human); compound 0.1 µM
  residual activity: 100%
MARK3 (human); compound 1.0 µM
  residual activity: 108%
MARK3 (human); compound 10.0 µM
  residual activity: 99%
MINK1 (human); compound 1.0 µM
  residual activity: 91%
MINK1 (human); compound 10.0 µM
  residual activity: 55%
MKNK1 (human); compound 0.1 µM
  residual activity: 92%
MKNK1 (human); compound 1.0 µM
  residual activity: 100%
MKNK1 (human); compound 10.0 µM
  residual activity: 97%
[1]; compound 1.0 µM
  residual activity: 107%
[1]; compound 10.0 µM
  residual activity: 108%
PHKG1 (human); compound 0.1 µM
  residual activity: 96%
PHKG1 (human); compound 1.0 µM
  residual activity: 53%
PHKG1 (human); compound 10.0 µM
  residual activity: 14%
PIM3 (human); compound 0.1 µM
  residual activity: 95%
PIM3 (human); compound 1.0 µM
  residual activity: 55%
PIM3 (human); compound 10.0 µM
  residual activity: 24%
ROCK2 (rat); compound 0.1 µM
  residual activity: 100%
ROCK2 (rat); compound 1.0 µM
  residual activity: 89%
ROCK2 (rat); compound 10.0 µM
  residual activity: 79%
[2]; compound 0.1 µM
  residual activity: 89%
[2]; compound 1.0 µM
  residual activity: 94%
[2]; compound 10.0 µM
  residual activity: 84%
SRPK1 (human); compound 0.1 µM
  residual activity: 94%
SRPK1 (human); compound 1.0 µM
  residual activity: 92%
SRPK1 (human); compound 10.0 µM
  residual activity: 86%
STK3 (human); compound 0.1 µM
  residual activity: 85%
STK3 (human); compound 1.0 µM
  residual activity: 96%
STK3 (human); compound 10.0 µM
  residual activity: 92%
TAOK1 (human); compound 1.0 µM
  residual activity: 86%
TAOK1 (human); compound 10.0 µM
  residual activity: 97%
TBK1 (human); compound 0.1 µM
  residual activity: 97%
TBK1 (human); compound 1.0 µM
  residual activity: 91%
TBK1 (human); compound 10.0 µM
  residual activity: 56%
YES1 (human); compound 0.1 µM
  residual activity: 69%
YES1 (human); compound 1.0 µM
  residual activity: 82%
YES1 (human); compound 10.0 µM
  residual activity: 80%
